Assay results as given in PubChem BioAssay (NCI).
Several values for one entry are separate records, joined by “and”; a condition that tells them apart may be missing. Equal entries are not always repeated.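 Results reflect a 48-hour exposure of cells in 96-well plates to compound at five concentrations. Here, GI50 denotes the concentration required for 50% inhibition of growth. TGI denotes the concentration required for complete inhibition of growth.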

Legend:
Experiment in all cases: NCI-60 cell line screen, 48 h
[1] = test system: HOP-92 NSCLC
[2] = test system: SNB-78 CNS
[3] = test system: SK-MEL-2 melanoma
[4] = test system: ACHN renal
[5] = test system: DMS 273 small cell lung
[6] = test system: NCI-H226 lung
[7] = test system: MCF7 breast
[8] = test system: 786-0 renal
[9] = test system: OVCAR-8 ovarian
[10] = test system: SK-MEL-5 melanoma

## COc1cc(NCc2ccc3nc(N)nc(N)c3c2C)cc(OC)c1OC (tested in a mixture with another compound)
[1]
  GI50: 0.0233 µM
[2]
  TGI: 116 µM
[3]
  GI50: 0.339 µM
  TGI: 42.3 µM and 55.1 µM
[4]
  GI50: 0.0736 µM and 0.025 µM
  TGI: 32.8 µM
[5]
  TGI: 12.3 µM
[6]
  GI50: 0.0892 µM
  TGI: 52.8 µM
[7]
  TGI: 28.7 µM
[8]
  GI50: 0.0145 µM and 0.025 µM

## COc1ccc(CC2NCCc3c2[nH]c2ccccc32)cc1 (stereo not given)
[1]
  TGI: 58.6 µM
[9]
  TGI: > 100 µM
[2]
  TGI: > 100 µM
[3]
  TGI: > 100 µM
[10]
  TGI: > 100 µM
[4]
  TGI: > 100 µM
[5]
  TGI: 87.7 µM
[6]
  TGI: > 100 µM
[8]
  TGI: > 100 µM

## CCC(C)COC(=O)c1ccc(N=Cc2ccc(C=Nc3ccc(C(=O)OCC(C)CC)cc3)cc2)cc1 (stereo not given)
[1]
  TGI: > 100 µM
[9]
  TGI: > 100 µM
[2]
  TGI: > 100 µM
[3]
  TGI: > 100 µM
[10]
  TGI: > 100 µM
[4]
  TGI: > 100 µM
[5]
  TGI: > 100 µM
[6]
  TGI: > 100 µM
[8]
  TGI: > 100 µM

## O=C1/C(=C/c2ccc3c(c2)OCO3)SC2C=Nc3ccccc3N12 (stereo not given)
[1]
  TGI: > 100 µM
[9]
  TGI: > 100 µM
[2]
  TGI: > 100 µM
[3]
  TGI: > 100 µM
[10]
  TGI: > 100 µM
[4]
  TGI: > 100 µM
[5]
  TGI: > 100 µM
[6]
  TGI: > 100 µM
[8]
  TGI: > 100 µM

## CCOc1ccc(NC(=O)C(=O)CC(=O)c2c(C)n([O-])c3ccccc3[n+]2=O)cc1
[1]
  TGI: > 100 µM
[9]
  TGI: > 100 µM
[2]
  TGI: > 100 µM
[3]
  TGI: > 100 µM
[10]
  TGI: > 100 µM
[4]
  TGI: > 100 µM
[5]
  TGI: > 100 µM
[6]
  TGI: > 100 µM
[8]
  TGI: > 100 µM

## O=C1/C(=C/c2ccc(Cl)cc2)CCC1CCN1CCOCC1 (stereo not given)
[1]
  TGI: > 100 µM
[9]
  TGI: > 100 µM
[2]
  TGI: > 100 µM
[3]
  TGI: > 100 µM
[10]
  TGI: > 100 µM
[4]
  TGI: > 100 µM
[5]
  TGI: > 100 µM
[6]
  TGI: > 100 µM
[8]
  TGI: > 100 µM

## CC(=O)Oc1c2c(c(O)c3ccccc13)C(n1cnc3c(ncn3C3OC(CO)C4OC(C)(C)OC43)c1=N)CCC2 (stereo not given)
[1]
  TGI: 39.1 µM
[9]
  TGI: 23.9 µM
[2]
  TGI: 59.6 µM
[3]
  TGI: 29.4 µM
[10]
  TGI: 24.5 µM
[4]
  TGI: 30.9 µM
[5]
  TGI: 40.6 µM
[6]
  TGI: 52.8 µM
[8]
  TGI: 27.8 µM

## O=c1ccn([C@H]2CSC[C@@H](CO)C2)c(=O)[nH]1
[1]
  TGI: > 100 µM
[9]
  TGI: > 100 µM
[2]
  TGI: > 100 µM
[3]
  TGI: > 100 µM
[10]
  TGI: > 100 µM
[4]
  TGI: > 100 µM
[5]
  TGI: > 100 µM
[6]
  TGI: > 100 µM
[8]
  TGI: > 100 µM

## CC(=O)OC12C=CC(=O)N1c1ccccc1C(=O)O2 (stereo not given)
[1]
  TGI: > 100 µM
[9]
  TGI: > 100 µM
[2]
  TGI: > 100 µM
[3]
  TGI: > 100 µM
[10]
  TGI: > 100 µM
[4]
  TGI: > 100 µM
[5]
  TGI: > 100 µM
[6]
  TGI: > 100 µM
[7]
  GI50: > 100 µM
  TGI: > 100 µM
[8]
  TGI: > 100 µM
